Data on 2 compounds can be found in patent publication US20100183600A1, “RAF Inhibitors and Their Uses” (ARQULE, INC., priority 2008, published 2010).

The structures appear in SMILES notation. “Also recorded” adds a separate entry of the source.

In one experiment the target is T1, mutant B-RAF (Homo sapiens, UniProt P15056, V600E).
T1 construct: purchased Upstate (Charlottesville, Va.)
As to the kind of experiment: Measurement of RAF activity (MEK-1 phosphorylation). In kind it is biochemical. The settings on record: 50 μM ATP, MEK-1 substrate; read-out: Mut-B-Raf IC50. As to the method: Materials: The RAF kinases and the anti-phospho MEK1/2 antibody were from Upstate (Charlottesville, Va.). The RAF substrate used was full length N-terminal GST-MEK-1, which was expressed in E. coli and purified in-house by HPLC. All proteins were aliquoted and stored at −80° C. Superblock™ in phosphate buffered saline (PBS) blocking reagent was form Pierce (cat. #37515). ATP was from Roche (cat. # 19035722). Alkaline Phosphatase-tagged goat anti-rabbit antibody was from Pierce (cat. # 31340).
Methods: All RAF biochemical assays were performed using an assay buffer containing 20 mM MOPS, 5 mM EGTA, 37.5 mM MgCl2, 1 mM DTT and 50 μM ATP. There was 6.25 ng/well mutant B-RAF and 7.5 ng/well MEK-1 in the final assay conditions. Compounds were serially diluted in assay buffer containing 1% DMSO and 20 μl of test compound at a concentration 3-fold more than the final concentration, and were added to a polypropylene V-well reaction plate. Vehicle control wells received buffer only with DMSO at equivalent concentrations to the test wells. […] These reaction plates were incubated at room temperature for 30 minutes. Capture of MEK-1 was initiated by transferring 50 μl of the reaction mixture to a Nunc Maxisorp™ microplate that is designed for non-specific protein capture. After 30 minute capture of MEK-1 at room temperature, this plate was washed with TBST (6×200 μL/well) to fully terminate the reaction. The plate was then blocked for 1 hour by the addition of 100 μl/well of Superblock™ in phosphate buffered saline (PBS) blocking reagent. Plate was again washed with TBST (6 times with 200 μl/well), followed by the addition of 70 μl/well of Upstate anti-phospho MEK ½ diluted 1:1000 in Pierce Superblock (PBS). After a 60 minute incubation, this plate was washed with TBST (6 times with 200 μl/well), and 70 μl of the secondary antibody (Pierce Alkaline Phosphatase tagged goat anti-rabbit) prepared at 1:4000 in Superblock, were added. After a 45 minute incubation at room temperature, the wells of the microplate were washed with TBST (6 times with 200 μl/well), and thereafter 100 μl/well of Attophos™ fluorescent alkaline phosphatase substrate was added according to the manufacturer's instructions (JBL Scientific). Fluorescence was read on a Perkin Elmer Envision multilabel reader, using the following filters: Excitation Filter: CFP430 nM, Emission Filter: Emission Filter 579 nM.

For a further experiment, the system named is human tumors (A375). Put plainly: Xenograft model in athymic mice. In kind it is in vivo, mouse. As to the method:
Compound 17 was injected intra-peritoneally (IP) at 160 mg/kg and compound 19 was injected IP at 300 mg/kg (equivalent dose if expressed in mmole/kg, taking into account salt components).
A mouse xenograft model was performed according to the method of Jacob et al, Gene Ther Mol Biol 2004; 8:213-219 and Wilhelm et al, Cancer Research 2004; 64: 7099-7109.
Animal Care. Six week old female NCr nu/nu mice were purchased from Taconic Farms, Germantown, N.Y. and allowed to acclimate 1-2 weeks. Mice were housed in sterile micro isolator cages, 5 mice per cage and receive food and water ad libitum. All experimental procedures and surgical manipulations were approved in accordance with ArQule's Institutional Animal Care and Use Committee (IACUC).
Tumor Cell Lines and Model. Carcinoma cell lines were obtained from and propagated as recommended by American Type Tissue Culture (ATCC), (Manassas, Va.). Mice were implanted subcutaneously with 2.5-10×10^6 cells in 0.1 ml sterile Hanks Balanced Salt Solution (HBSS) in the upper right flank area. […] Tumor weight (mg) was calculated from the equation length×(width)^2)/2; this formula can also be used to calculate tumor volume assuming unit density 1 mg=1 mm^3 Percent inhibition or tumor growth inhibition (TGI) was calculated using the following formula: 1-[mean tumor value of treated/mean tumor value of control]×100. […]

A further experiment concerns A375. Put plainly: Cell growth inhibition assay (MTS). In kind it is cell-based. The settings on record: Homo sapiens. The protocol: (§1) Compounds of the present invention have been tested for activity against a variety of cancer cell lines. The ability of compounds to inhibit cell growth in this assay is correlated with the reduction of dehydrogenase enzyme activity found in metabolically active cells.
(§2) Materials: A large variety of cancer cells from ATCC were maintained at 37° C., 5% CO2 in DMEM media supplemented with 10% fetal bovine serum, penicillin/streptomycin and fungizone (Invitrogen). NCM460 (Incell), a normal colon epithelial cell line, and human mammary epithelial cells (Cambrex) were maintained at 37° C., 5% CO2 in DMEM and HEBM media (Cambrex), respectively.
(§3) Methods: Test compounds were dissolved and diluted to 300× in DMSO then diluted 1:40 in DMEM. Cells were seeded into 96-well tissue culture plates at 1-5×10^3 per well and cultured at 37° C. for 24 h. Cells were incubated with test compounds for 72 hours followed by incubation with tetrazolium compound (3-(4,5-dimethylthiazol-2-yl)-5-(3-carboxymethoxyphenyl)-2-(4-sulfophenyl)-2H-tetrazolium, inner salt; MTS) and the electron coupling reagent, phenazine methosulfate (PMS) for 4 hr. […] The measurement of the absorbance of the formazan was assessed using an ENVISION™ (Perkin Elmer) microplate reader at 492 nm. The calculated IC50 value is the concentration of the test compound that causes a 50% decrease in the absorbance.

The next experiment deals with DLD-1. As to the kind of experiment: Cell growth inhibition assay (MTS). In kind it is cell-based. Particulars: Homo sapiens. The protocol: as §1, §2, §3
The next experiment relates to RKO. As to the kind of experiment: Cell growth inhibition assay (MTS). In kind it is cell-based. The settings on record: Homo sapiens. The protocol: as §1, §2, §3
Another experiment relates to SK-MEL-28. As to the kind of experiment: Cell growth inhibition assay (MTS). In kind it is cell-based. Particulars: Homo sapiens. As to the method:
as §1, §2, §3

Another experiment concerns WM-266-4. Put plainly: Cell growth inhibition assay (MTS). In kind it is cell-based. The settings on record: Homo sapiens. As to the method:
as §1, §2, §3

T1 sequence (P15056 whole entry V600E): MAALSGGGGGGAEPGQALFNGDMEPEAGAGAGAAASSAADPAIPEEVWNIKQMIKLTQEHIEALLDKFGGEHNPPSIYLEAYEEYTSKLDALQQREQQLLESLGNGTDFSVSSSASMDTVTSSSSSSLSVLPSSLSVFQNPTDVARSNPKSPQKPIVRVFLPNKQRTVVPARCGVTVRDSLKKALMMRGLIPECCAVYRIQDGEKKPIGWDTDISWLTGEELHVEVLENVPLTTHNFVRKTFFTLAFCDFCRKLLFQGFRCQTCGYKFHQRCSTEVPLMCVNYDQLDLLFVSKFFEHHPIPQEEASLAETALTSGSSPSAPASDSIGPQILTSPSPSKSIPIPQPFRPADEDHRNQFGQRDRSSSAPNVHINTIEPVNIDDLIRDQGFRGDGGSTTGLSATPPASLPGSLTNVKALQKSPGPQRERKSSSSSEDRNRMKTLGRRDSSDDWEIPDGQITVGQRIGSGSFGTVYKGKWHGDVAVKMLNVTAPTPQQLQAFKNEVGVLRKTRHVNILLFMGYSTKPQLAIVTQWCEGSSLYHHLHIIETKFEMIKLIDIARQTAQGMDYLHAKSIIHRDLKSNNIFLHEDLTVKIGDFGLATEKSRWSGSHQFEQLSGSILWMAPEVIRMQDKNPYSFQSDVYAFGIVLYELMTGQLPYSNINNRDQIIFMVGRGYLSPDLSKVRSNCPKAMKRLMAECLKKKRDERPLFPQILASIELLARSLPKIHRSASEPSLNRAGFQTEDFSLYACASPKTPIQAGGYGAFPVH

For orientation: IC50 means the concentration at which inhibition is half-maximal. As usually defined, the GI50 is the concentration giving 50% growth inhibition. A high value points to less potent growth inhibition. Regarding `Cn1ccc(S(=O)(=O)N2CCC[C@@H](Nc3nccc(-c4c(-c5cccc(OCOP(=O)(O)O)c5)nc5occn45)n3)C2)n1` [Compound 19, (R)-(3-(5-(2-(1-(1-methyl-1H-pyrazol-3-ylsulfonyl)piperidin-3-ylamino)pyrimidin-4-yl)imidazo[2,1-b]oxazol-6-yl)phenoxy)methyl dihydrogen phosphate], at mutant B-RAF, the concentration for half-maximal inhibition (IC50) came out at 2920 nM. Besides, the “anti-tumor activity in a xenograft cancer model” value with human tumors (A375) (IP at 300 mg/kg, FIG. 3, 300 mg/kg) was “retain their anti-tumor activity; also recorded: equally effective”. Also, the 50% growth inhibitory concentration (GI50) in the experiment on A375 (A-375, A375, skin) was found to be 300 nM; in the experiment with A375 (A-375, A-375, melanoma), 280 nM; in the experiment with DLD-1 (DLD-1, colon), 19000 nM; in the experiment on RKO (colon carcinoma), 570 nM; with SK-MEL-28 (SK-MEL-28, malignant melanoma), 1700 nM; in the experiment on WM-266-4 (WM 266-4, WM-266.4, melanoma), 130 nM.
As to `Cn1ccc(S(=O)(=O)N2CCC[C@@H](Nc3nccc(-c4c(-c5cccc(O)c5)nc5occn45)n3)C2)n1` [Compound 17, (R)-3-(5-(2-(1-(1-methyl-1H-pyrazol-3-ylsulfonyl)piperidin-3-ylamino)pyrimidin-4-yl)imidazo[2,1-b]oxazol-6-yl)phenol], at mutant B-RAF, the IC50 turned out to be 8 nM. In the experiment with human tumors (A375) (IP at 160 mg/kg, FIG. 3, 160 mg/kg), the “anti-tumor activity in a xenograft cancer model” value was “retain their anti-tumor activity; also recorded: equally effective”. The GI50 was less than 0.4 nM with A375 (A-375, 72 h, A375, 72 hours); 12100 nM in the experiment on DLD-1 (DLD-1, 72 hours); 95 nM with RKO (72 hours); 97 nM in the experiment with SK-MEL-28 (SK-MEL-28, 72 hours); 0.6 nM in the experiment with WM-266-4 (WM-266-4, 72 hours).
